According to patent US20260184693A1, “INHIBITORS OF SOLUTE CARRIER FAMILY 6A MEMBER 19 (SLC6A19) AND METHODS OF USE THEREOF” (Maze Therapeutics, Inc., priority 2022, published 2026):

Target: T1, human SLC6A19 (Homo sapiens, UniProt Q695T7)
T1 construct: expressed in transfected cells
T1 sequence (Q695T7 1-634): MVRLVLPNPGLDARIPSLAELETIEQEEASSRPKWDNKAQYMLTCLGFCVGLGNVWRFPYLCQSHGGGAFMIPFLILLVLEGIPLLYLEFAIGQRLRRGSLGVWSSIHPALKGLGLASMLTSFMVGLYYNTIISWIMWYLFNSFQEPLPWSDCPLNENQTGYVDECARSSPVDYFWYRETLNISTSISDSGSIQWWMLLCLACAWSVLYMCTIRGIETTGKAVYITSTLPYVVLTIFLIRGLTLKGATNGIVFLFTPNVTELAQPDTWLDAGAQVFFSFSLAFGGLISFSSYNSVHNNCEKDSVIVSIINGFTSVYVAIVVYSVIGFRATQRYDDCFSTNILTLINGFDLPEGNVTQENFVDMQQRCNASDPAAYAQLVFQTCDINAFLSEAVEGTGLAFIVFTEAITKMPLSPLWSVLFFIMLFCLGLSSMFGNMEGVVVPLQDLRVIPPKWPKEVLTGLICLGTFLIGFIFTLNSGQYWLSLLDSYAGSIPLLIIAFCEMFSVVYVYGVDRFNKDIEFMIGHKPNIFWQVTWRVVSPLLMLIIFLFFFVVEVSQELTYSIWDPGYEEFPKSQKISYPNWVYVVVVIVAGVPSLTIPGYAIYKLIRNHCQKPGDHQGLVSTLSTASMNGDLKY
T1 sequence (Q9HBJ8 15-222 partner): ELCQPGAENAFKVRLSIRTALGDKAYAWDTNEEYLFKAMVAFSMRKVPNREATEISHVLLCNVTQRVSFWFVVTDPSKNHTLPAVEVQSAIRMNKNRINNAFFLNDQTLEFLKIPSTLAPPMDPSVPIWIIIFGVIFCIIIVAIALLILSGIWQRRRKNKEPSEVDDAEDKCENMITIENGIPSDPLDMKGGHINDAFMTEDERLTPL
Test: Example B2: 13C6,15N-isoleucine uptake, RapidFire mass spectrometry, in CHO cells with doxycycline-inducible expression of human SLC6A19 and TMEM27
Assay type: cell-based
Details: read-out: SLC6A19_RapidFire Uptake Assay IC50
Method: Assay ready vials of CHO cells with doxycycline inducible expression of human SLC6A19 and TMEM27 were thawed, plated in T175 flasks containing DMEM/F12 media, 10% FBS, 100 Penicillin-Streptomycin, 1× UltraGlutamate, 1 mM Sodium Pyruvate, Sodium Bicarbonate (7.5 mL of 7.5% solution in 500 mL media final), […] Blasticidin, 150 µg/mL Hygromycin B Gold, and 500 µg/mL G418, and incubated (humidified, 37° C. with […]) for 48 hours. Media was then removed, flasks were washed with 20 mL of DPBS, and 5 mL of TryμLE™ Express was added to each flask to initiate cell dissociation. After 5 minutes, 10 mL of cell culture media was added to each flask and mixed. The cell suspension was collected and centrifuged for 5 minutes at 200×g. The supernatant was removed, and the pellet was resuspended in 10 mL of cell culture media. Resuspended cells were counted using a Vi-Cell. 30 μL/well (20,000 cells/well) of cell suspension was added to Poly-D-Lysine 384-well black/clear plates. Plates were incubated (humidified, 37° C. with 5% CO2) for 24 hours. To induce expression of human SLC6A19 and TMEM27, 10 μL of assay culture media containing 4 μg/mL doxycycline was added to each well. Assay plates were then incubated (humidified, 37° C. with 5% CO2) overnight. After incubation, the media was removed, and wells were washed 3 times with 40 μL of warmed DPBS. […] All compounds were plated in a duplicate 10-point dilution series that consisted of 2-fold dilutions. The plates were incubated (humidified, 37° C. with 5% CO2) with compound for 20 minutes. Afterwards, 20 μL/well of 2 mM 13C6,15N-1-isoleucine was added to each well and plates were incubated again (humidified, 37° C. with 5% CO2) for another 20 minutes. Assay buffer was then removed, and plates were washed. 70 μL/well of stop solution (75% acetonitrile, 25% HPLC grade water, 250 nM 1-leucine-1-13 C (RapidFire standard)) was added to each well. The plates were sealed and then placed in a −20° C. freezer for 20 minutes. The plates were thawed at room temperature for 20 minutes and then centrifuge for 20 minutes at 3000 rpm. Using an ABSciex API4000 mass spectrometer, processed samples were loaded onto the graphitic carbon SPE-column. The time for aspiration, load/wash, elution and re-equilibration time was 600, 1500, 3000 and 500 milliseconds, respectively. Peak areas were calculated using RapidFire Integrator software.

IC50	Structure (SMILES)
252 nM	CN(C(=O)NCc1cc2cc(Cl)ccc2[nH]1)[C@@H]1CCCN(C(=O)C2COC2)C1 [Compound 1, (R)-3-((5-chloro-1H-indol-2-yl)methyl)-1-methyl-1-(1-(oxetane-3-carbonyl)piperidin-3-yl)urea]
3520 nM	CN(C(=O)NCc1cc2cc(Cl)ccc2[nH]1)[C@@H]1CCCN(C(=O)CN2CCOC2=O)C1 [Compound 2, (R)-3-((5-chloro-1H-indol-2-yl)methyl)-1-methyl-1-(1-(2-(2-oxooxazolidin-3-yl)acetyl)piperidin-3-yl)urea]
359 nM	CN(C(=O)NCc1cc2cc(Cl)ccc2[nH]1)[C@@H]1CCCN(C(=O)CC#N)C1 [Compound 3, (R)-3-((5-chloro-1H-indol-2-yl)methyl)-1-(1-(2-cyanoacetyl)piperidin-3-yl)-1-methylurea]
620 nM	CN(C(=O)NCc1cc2cc(Cl)ccc2[nH]1)[C@@H]1CCCN(C(=O)CO)C1 [Compound 4, (R)-3-((5-chloro-1H-indol-2-yl)methyl)-1-(1-(2-hydroxyacetyl)piperidin-3-yl)-1-methylurea]
578 nM	CN(C(=O)NCc1cc2cc(Cl)ccc2[nH]1)[C@@H]1CCCN(C(=O)c2ccon2)C1 [Compound 5, (R)-3-((5-chloro-1H-indol-2-yl)methyl)-1-(1-(isoxazole-3-carbonyl)piperidin-3-yl)-1-methylurea]
198 nM	CN(C(=O)NCc1cc2cc(Cl)ccc2[nH]1)[C@@H]1CCCN(C(=O)c2ccno2)C1 [Compound 6, (R)-3-((5-chloro-1H-indol-2-yl)methyl)-1-(1-(isoxazole-5-carbonyl)piperidin-3-yl)-1-methylurea]
685 nM	CN(C(=O)NCc1cc2cc(Cl)ccc2[nH]1)[C@@H]1CCCN(C(=O)c2cocn2)C1 [Compound 7, (R)-3-((5-chloro-1H-indol-2-yl)methyl)-1-methyl-1-(1-(oxazole-4-carbonyl)piperidin-3-yl)urea]
491 nM	CN(C(=O)NCc1cc2cc(Cl)ccc2[nH]1)[C@@H]1CCCN(C(=O)CC(F)(F)F)C1 [Compound 8, (R)-3-((5-chloro-1H-indol-2-yl)methyl)-1-methyl-1-(1-(3,3,3-trifluoropropanoyl)piperidin-3-yl)urea]
5370 nM	CN(C(=O)NCc1cc2cc(Cl)ccc2[nH]1)[C@@H]1CCCN(C(=O)c2nccs2)C1 [Compound 9, (R)-3-((5-chloro-1H-indol-2-yl)methyl)-1-methyl-1-(1-(thiazole-2-carbonyl)piperidin-3-yl)urea]
125 nM	CCC(=O)N1CCC[C@@H](N(C)C(=O)NCc2cc3cc(Cl)ccc3[nH]2)C1 [Compound 10, (R)-3-((5-chloro-1H-indol-2-yl)methyl)-1-methyl-1-(1-propionylpiperidin-3-yl)urea]
743 nM	CN(C(=O)NCc1cc2cc(Cl)ccc2[nH]1)[C@@H]1CCCN(C(=O)c2cn[nH]c2)C1 [Compound 11, (R)-1-(1-(1H-pyrazole-4-carbonyl)piperidin-3-yl)-3-((5-chloro-1H-indol-2-yl)methyl)-1-methylurea]
354 nM	CC(O)C(=O)N1CCC[C@@H](N(C)C(=O)NCc2cc3cc(Cl)ccc3[nH]2)C1 (stereo partly drawn) [Compound 12, 3-((5-chloro-1H-indol-2-yl)methyl)-1-((3R)-1-(2-hydroxypropanoyl)piperidin-3-yl)-1-methylurea]
1610 nM	CN(C(=O)NCc1cc2cc(Cl)ccc2[nH]1)[C@@H]1CCCN(C(=O)c2c[nH]cn2)C1 [Compound 13, (R)-1-(1-(1H-imidazole-4-carbonyl)piperidin-3-yl)-3-((5-chloro-1H-indol-2-yl)methyl)-1-methylurea]
467 nM	CN(C(=O)NCc1cc2cc(Cl)ccc2[nH]1)[C@@H]1CCCN(C(=O)[C@H]2C[C@@H]2F)C1 [Compound 14, 3-((5-chloro-1H-indol-2-yl)methyl)-1-((R)-1-((1R,2S)-2-fluorocyclopropane-1-carbonyl)piperidin-3-yl)-1-methylurea]
539 nM	COCC(=O)N1CCC[C@@H](N(C)C(=O)NCc2cc3cc(Cl)ccc3[nH]2)C1 [Compound 15, (R)-3-((5-chloro-1H-indol-2-yl)methyl)-1-(1-(2-methoxyacetyl)piperidin-3-yl)-1-methylurea]
> 4290 nM	CN(C(=O)NCc1cc2cc(Cl)ccc2[nH]1)[C@@H]1CCCN(C(=O)C2(F)CC2)C1 [Compound 16, (R)-3-((5-chloro-1H-indol-2-yl)methyl)-1-(1-(1-fluorocyclopropane-1-carbonyl)piperidin-3-yl)-1-methylurea]
151 nM	CN(C(=O)NCc1cc2cc(Cl)ccc2[nH]1)[C@@H]1CCCN(C(=O)C2CC2)C1 [Compound 17, (R)-3-((5-chloro-1H-indol-2-yl)methyl)-1-(1-(cyclopropanecarbonyl)piperidin-3-yl)-1-methylurea]
2250 nM	CN(C(=O)NCc1cc2cc(Cl)ccc2[nH]1)[C@@H]1CCCN(C(=O)c2ncc[nH]2)C1 [Compound 18, (R)-1-(1-(1H-imidazole-2-carbonyl)piperidin-3-yl)-3-((5-chloro-1H-indol-2-yl)methyl)-1-methylurea]
484 nM	CN(C(=O)NCc1cc2cc(Cl)ccc2[nH]1)[C@@H]1CCCN(C(=O)C2CC2(F)F)C1 (stereo partly drawn) [Compound 19, 3-((5-chloro-1H-indol-2-yl)methyl)-1-((3R)-1-(2,2-difluorocyclopropane-1-carbonyl)piperidin-3-yl)-1-methylurea]
8960 nM	CN(C(=O)NCc1cc2cc(Cl)ccc2[nH]1)[C@@H]1CCCN(C(=O)c2cncnc2)C1 [Compound 20, (R)-3-((5-chloro-1H-indol-2-yl)methyl)-1-methyl-1-(1-(pyrimidine-5-carbonyl)piperidin-3-yl)urea]
4370 nM	CN(C(=O)NCc1cc2cc(Cl)ccc2[nH]1)[C@@H]1CCCN(C(=O)c2ncccn2)C1 [Compound 22, (R)-3-((5-chloro-1H-indol-2-yl)methyl)-1-methyl-1-(1-(pyrimidine-2-carbonyl)piperidin-3-yl)urea]
5840 nM	CN(C(=O)NCc1cc2cc(Cl)ccc2[nH]1)[C@@H]1CCCN(C(=O)c2ccnnc2)C1 [Compound 23, (R)-3-((5-chloro-1H-indol-2-yl)methyl)-1-methyl-1-(1-(pyridazine-4-carbonyl)piperidin-3-yl)urea]
4200 nM	CN(C(=O)NCc1cc2cc(Cl)ccc2[nH]1)[C@@H]1CCCN(C(=O)c2ncc(F)cn2)C1 [Compound 24, (R)-3-((5-chloro-1H-indol-2-yl)methyl)-1-(1-(5-fluoropyrimidine-2-carbonyl)piperidin-3-yl)-1-methylurea]
11600 nM	Cc1n[nH]nc1C(=O)N1CCC[C@@H](N(C)C(=O)NCc2cc3cc(Cl)ccc3[nH]2)C1 [Compound 25, (R)-3-((5-chloro-1H-indol-2-yl)methyl)-1-methyl-1-(1-(5-methyl-2H-1,2,3-triazole-4-carbonyl)piperidin-3-yl)urea]
5260 nM	CN(C(=O)NCc1cc2cc(Cl)ccc2[nH]1)[C@@H]1CCCN(C(=O)c2cnnn2C)C1 [Compound 26, (R)-3-((5-chloro-1H-indol-2-yl)methyl)-1-methyl-1-(1-(1-methyl-1H-1,2,3-triazole-5-carbonyl)piperidin-3-yl)urea]
